Laboratory results reported in patent US7968554B2, “Pyrazolo[3,4-d]pyrimidine derivatives” (Hoffman-La Roche Inc., priority 2007, dated 2011).

Target: T1, c-Raf (Homo sapiens, UniProt P04049)
T1 construct: made in house; host or cells: baculovirus, High-5 (Hi5) insect cells, co-infected with FLAG-vSrc virus
Test: c-Raf HTRF assay with 6H-MEK as substrate (dose response)
Assay type: biochemical
Conditions: kinase enzyme inhibition, 6H-MEK substrate, read-out: cRaf IC50
Method: Kinase Enzyme Inhibition Assay (IC50)
c-Raf HTRF Assay With 6H-MEK as Substrate (Dose Response)
The assay utilizes 6H-MEK as the substrate. Upon c-Raf phosphorylation, phosphorylated 6H-MEK is detected with rabbit anti-phospho-MEK1/2, Eu-labeled anti-rabbit, and APC-labeled anti-6H antibodies.
Reagents and Instruments:
• Enzyme: cloned human c-Raf with EE-tag; phosphorylated (co-expressed with v-src-FLAG in baculovirus Hi5 cells), 0.2 mg/mL (2.74 μM assuming a molecular weight of 73 kD) stored at −15° C. • Substrate: WT full-length 6H-MEK, 4.94 mg/mL (154.4 μM assuming a MW of 32 kD) stored at −15° C. • Antibodies: Rabbit (α-P-(Ser 217/221)-MEK-1/2 Ab (from Cell Signaling, Cat. #9121B, Lot 14); Eu-(α-rabbit IgG (from Wallac, Cat. #AD0083, Lot 318663, 710 ug/mL, 4.4 μM); (α-6H-SureLight-APC (from Martek, Cat. #AD0059H, Lot E012AB01, 3.03 μM). • Reader: Envision from PerkinElmer, HTRF reading mode with 412 mirror • Assay Plate: Matrix all-black polypropylene plates (Cat. #4344) • Others: Weidman 384 polypropylene plates (REMP) for compound plate. Assay Procedure: • (1) Prepare Kinase Assay Buffer (KAB): 50 mM HEPES (HyClone) pH7, 10 mM MgCl2, 1 mM DTT, 0.1 mM […], and 0.3 mg/ml BSA. • (2) Prepare 6H-MEK (150 nM) in KAB. Add 12 μL/well to the assay plate. • (3) Prepare ATP (66 μM) in KAB. • (4) Dilute compounds to 2.4 mM and any positive controls to 480 μM in DMSO. Perform 10-point 3× dilution in DMSO. Withdraw 2.5 μL/well of DMSO solution and add to 27.5 μl/well ATP solution in (3). • (5) Mix, then add 6 μl/well of solution in (4) to the assay plate for a DMSO concentration of 2.1% during MEK phosphorylation. • (6) Prepare c-Raf (12 nM) in KAB. • (7) Add 6 μl/well of KAB in columns 1-2 and 6 μL/well of c-Raf in columns 3-24. • (8) Incubate at 37° C. for 30 min. • (9) Prepare rabbit (α-P-(Ser 217/221 )-MEK-1/2 Ab (1:240 from stock) in AB1: 50 mM HEPES pH7, 0.2 mg/mL BSA, and 43 mM EDTA. • (10) To stop reaction, add 6 μL/well of solution from (9) to the assay plate and incubate at 37° C. for 30 min. • (11) Prepare Eu-(α-rabbit IgG (9 nM) and (α-6H-SureLight-APC (120 nM) in AB2: 50 mM HEPES pH7 and 0.2 mg/mL BSA. • (12) Add 6 μl/well of solution from (11) to the assay plate. • (13) For determining the spectrum cross talk factor, prepare 2 samples following steps (1) to (10). For the blank sample, add 6 μl/well of AB2. For the cross talk factor sample, add 6 μL/well of Eu-anti rabbit IgG (9 nM). • (14) Incubate at room temperature for 1.5 hours. • (15) Read HTRF signals at 615 nm and 665 nm on the Envision. Normalize HTRF signals after spectrum cross-talk correction. Expression and Purification of c-Raf
N terminal EE-tagged c-Raf was expressed in High-5 cells. A five liter culture was co-transfected with virus for EE-c-Raf and FLAG-vSrc at a ratio of 1:2 and harvested after 48 hours. The cell pellet was lysed in TBS containing 5 mM EDTA, 50 mM KF, 20 mM Na pyrophosphate, 20 mM β-glycerolphosphate, 0.5 mM Na VO3, 1% NP-40 (w/v) and Complete Protease Tablets. The lysate was centrifuged at 20,000×g for 1 hour. The supernatant was incubated with 8 mL of anti-EE tag-Protein G Sepharose for 2 hours at 4° C. The resin was then washed with 30 volumes of the above buffer. The c-Raf protein was eluted by incubation with the above buffer containing 100 mg/mL of EE peptide for 1 hour at 4° C. The protein was concentrated using an Amicon Stir Cell with an YM10 membrane. The concentrated protein was dialyzed against TBS containing 1 mM DTT and 30% Glycerol. Protein concentration was determined by the BioRad DC method.
E. coli cells containing the plasmid for the expression of 6H-MEK1 (62-393) were grown in Rich Media and induced with 1 mM IPTG for 24 hours at 22° C. The cell pellet was resuspended in 50 mM potassium phosphate buffer, pH 8.0, 300 mM NaCl, 5 mM MgCl2, 10 mM CHAPS, 2 mM TCEP, and Complete Protease Inhibitor Tablets. Cells were disrupted by sonication. The lysate was cleared by centrifugation at 13,000×g for 45 minutes. […]

T1 sequence (P04049 whole entry): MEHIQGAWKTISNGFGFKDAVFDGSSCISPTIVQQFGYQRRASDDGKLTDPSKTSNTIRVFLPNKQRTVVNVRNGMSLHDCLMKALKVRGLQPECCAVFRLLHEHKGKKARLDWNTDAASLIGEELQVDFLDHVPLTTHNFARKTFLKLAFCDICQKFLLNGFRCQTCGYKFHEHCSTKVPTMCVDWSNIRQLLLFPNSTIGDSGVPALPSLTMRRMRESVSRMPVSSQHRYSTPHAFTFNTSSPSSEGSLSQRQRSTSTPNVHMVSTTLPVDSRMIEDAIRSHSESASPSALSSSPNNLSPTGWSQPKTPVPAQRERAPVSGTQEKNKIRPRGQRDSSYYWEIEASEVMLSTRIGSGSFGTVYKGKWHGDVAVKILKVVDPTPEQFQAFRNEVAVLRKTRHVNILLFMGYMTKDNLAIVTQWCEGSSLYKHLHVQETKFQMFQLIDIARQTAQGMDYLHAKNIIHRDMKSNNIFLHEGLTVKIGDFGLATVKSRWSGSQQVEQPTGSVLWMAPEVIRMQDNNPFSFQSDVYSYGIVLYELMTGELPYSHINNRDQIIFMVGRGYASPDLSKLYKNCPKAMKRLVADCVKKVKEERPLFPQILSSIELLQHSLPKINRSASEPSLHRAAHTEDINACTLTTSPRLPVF

With `Cc1ccc(NC(=O)c2cccc(Cl)c2)cc1OCc1nn(C)c2ncnc(N)c12` [Example 11, N-[3-(4-Amino-1-methyl-1H-pyrazolo[3,4-d]pyrimidin-3-ylmethoxy)-4-methyl-phenyl]-3-chloro-benzamide] the IC50 was < 10 µM.
For `Cc1ccc(NC(=O)c2ccc(NCCO)c(Cl)c2)cc1OCc1nn(C)c2ncnc(N)c12` [Example 9, N-[3-(4-Amino-1-methyl-1H-pyrazolo[3,4-d]pyrimidin-3-ylmethoxy)-4-methyl-phenyl]-3-chloro-4-(2-hydroxy-ethylamino)-benzamide], the IC50 was < 10 µM.
`Cc1noc(-c2ccc(C)c(OCc3nn(C)c4ncnc(N)c34)c2)n1` [Example 13, 4-Amino-1-1-methyl-3-[2-methyl-5-(3-methyl-[1,2,4]oxadiazol-5-yl)-phenoxymethyl]-1H-pyrazolo[3,4-d]pyrimidine] was tested, and the IC50 was < 10 µM.
For `Cc1ccc(C(=O)Nc2ccc(Cl)cc2)cc1OCc1nn(C)c2ncnc(N)c12` [Example 17, 3-(4-Amino-1-methyl-1H-pyrazolo[3,4-d]pyrimidin-3-ylmethoxy)-N-(4-chloro-phenyl)-4-methyl-benzamide], the IC50 was < 10 µM.
In the case of `Cc1nnc(-c2ccc(C)c(OCc3nn(C)c4ncnc(N)c34)c2)o1` [Example 21, 1-Methyl-3-[2-methyl-5-(5-methyl-[1,3,4]oxadiazol-2-yl)-phenoxymethyl]-1H-pyrazolo[3,4-d]pyrimidin-4-ylamine], the IC50 is reported as < 10 µM.
In the case of `Cc1ccc(OCc2ccc(Cl)cc2)cc1OCc1nn(C)c2ncnc(N)c12` [Example 19, 3-[5-(4-Chloro-benzyloxy)-2-methyl-phenoxymethyl]-1-methyl-1H-pyrazolo[3,4-d]pyrimidin-4-ylamine], the IC50 is reported as < 10 µM.
In the case of `Cn1nc(COc2cccc(OCc3ccccc3)c2)c2c(N)ncnc21` [Example 7, 3-(3-Benzyloxy-phenoxymethyl)-1-methyl-1H-pyrazolo[3,4-d]pyrimidin-4-ylamine], the IC50 is reported as < 10 µM.
`Cc1ccc(OCc2ccccc2)cc1OCc1nn(C)c2ncnc(N)c12` [Example 15, 3-(5-Benzyloxy-2-methyl-phenoxymethyl)-1-methyl-1H-pyrazolo[3,4-d]pyrimidin-4-ylamine] was tested, and the IC50 was < 10 µM.
